Data published in US12391697B2, “Condensed bi-heterocycles as inhibiting agents for Bruton's tyrosine kinase” (BIOGEN MA INC., priority 2019, dated 2025).
Counter-ions that a name gives are not always drawn.

target: BTK (Homo sapiens (Human), UniProt Q06187); assay: In Vitro BTK Kinase Assay: Btk-PolyGAT-LS Assay; assay type: biochemical; conditions: active BTK enzyme 0.25 nM, ATP 10 μM, polyGAT 100 nM, 30 minutes
Protocol: In Vitro BTK Kinase Assay: Btk-PolyGAT-LS Assay
The purpose of the BTK in vitro assay is to determine compound potency against BTK through the measurement of IC50. […] The BTK kinase reaction was done in a black 96 well plate (costar 3694). For a typical assay, a […] aliquot of a ATP/peptide master mix (final concentration; ATP 10 μM, polyGAT 100 nM) in kinase buffer (10 mM Tris-HCl pH 7.5, 10 mM MgCl2, 200 μM […], 5 mM DTT, 0.01% Triton X-100, and 0.2 mg/ml casein) is added to each well. Next, […] of a 4-fold, 40× compound titration in 100% DMSO solvent is added, followed by adding 15 uL of BTK enzyme mix in 1× kinase buffer (with a final concentration of 0.25 nM). The assay is incubated for 30 minutes before being stopped with […] of a 50 mM EDTA solution. Aliquots (5 uL) of the kinase reaction are transferred to a low volume white 384 well plate (Corning 3674), and […] of a 2× detection buffer (Invitrogen PV3574, with 4 nM Tb-PY20 antibody, Invitrogen PV3552) is added. The plate is covered and incubated for 45 minutes at room temperature. Time resolved fluorescence (TRF) on Molecular Devices M5 (332 nm excitation; 488 nm emission; 518 nm fluorescein emission) is measured.

Chain of BTK (Q06187 whole entry): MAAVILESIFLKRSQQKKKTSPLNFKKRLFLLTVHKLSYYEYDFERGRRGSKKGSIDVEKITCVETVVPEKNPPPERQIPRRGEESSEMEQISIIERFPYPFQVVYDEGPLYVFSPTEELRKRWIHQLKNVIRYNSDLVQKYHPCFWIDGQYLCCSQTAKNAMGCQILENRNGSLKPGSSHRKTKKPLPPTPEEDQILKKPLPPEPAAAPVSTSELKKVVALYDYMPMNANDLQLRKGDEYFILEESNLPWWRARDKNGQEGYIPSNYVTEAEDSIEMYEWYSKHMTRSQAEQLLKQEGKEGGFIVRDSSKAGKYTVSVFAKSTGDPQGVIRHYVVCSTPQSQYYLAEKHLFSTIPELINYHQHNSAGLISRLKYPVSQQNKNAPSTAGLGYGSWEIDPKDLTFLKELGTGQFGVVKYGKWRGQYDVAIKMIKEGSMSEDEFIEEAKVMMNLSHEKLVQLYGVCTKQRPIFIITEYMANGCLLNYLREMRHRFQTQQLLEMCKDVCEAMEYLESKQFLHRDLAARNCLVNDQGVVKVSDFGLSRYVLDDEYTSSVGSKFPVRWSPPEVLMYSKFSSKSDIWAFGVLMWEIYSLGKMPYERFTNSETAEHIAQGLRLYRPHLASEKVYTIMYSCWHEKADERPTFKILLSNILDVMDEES

`Cc1cc(-c2ncnn3cc(-c4cnsc4)cc23)ccc1CNC(=O)c1nc(C(C)(C)C)no1` [Example 173] and `CCn1cc(-c2cc3c(-c4ccc(CNC(=O)c5noc(C(C)(C)C)n5)c(C)c4)ncnn3c2)cn1` [Example 236] cannot be ordered by IC50: no more than 1 nM for the first, no more than 1 nM for the second.

`CC(C)(C)n1cc(C(=O)NCc2ccc(-c3ncnn4cc(N5CCOCC5)cc34)cc2Cl)cn1` [Example 160] and `CC(C)(C)n1ccc(C(=O)NCc2ccc(-c3ncnn4cc(N5CCOCC5)cc34)c(F)c2Cl)n1` [Example 158] cannot be ordered by IC50: no more than 1 nM for the first, 1 to 10 nM for the second.

`Cc1cc(-c2ncnn3cc(-c4cccnc4)cc23)ccc1CNC(=O)c1noc(C(C)(C)C)n1` [Example 169] and `Cc1cc(-c2ncnn3cc(-c4cnco4)cc23)ccc1CNC(=O)c1noc(C(C)(C)C)n1` [Example 110] cannot be ordered by IC50: no more than 1 nM for the first, no more than 1 nM for the second.

`Cc1cc(-c2ncnn3cc(-c4cnn(C)c4C)cc23)ccc1CNC(=O)c1noc(C(C)(C)C)n1` [Example 109] and `Cc1cc(-c2ncnn3cc(-c4cnn(C)c4C)cc23)ccc1CNC(=O)c1nnn(C(C)(C)C)n1` [Example 129] cannot be ordered by IC50: no more than 1 nM for the first, no more than 1 nM for the second.

`Cc1cc(-c2ccnn3cccc23)ccc1CNC(=O)c1nc(C(C)(C)C)no1` [Example 18, 3-(tert-butyl)-N-(2-methyl-4-(pyrrolo[1,2-b]pyridazin-4-yl)benzyl)-1,2,4-oxadiazole-5-carboxamide] and `Cc1cc(-c2ccnn3ccnc23)ccc1CNC(=O)c1noc(C(C)(C)C)n1` [Example 21, 5-(tert-butyl)-N-(4-(imidazo[1,2-b]pyridazin-8-yl)-2-methylbenzyl)-1,2,4-oxadiazole-3-carboxamide trifluoroacetate] fall in the same range of IC50: 1 to 10 nM for the first, 1 to 10 nM for the second.

`Cc1cc(-c2ncnn3cc(N4CCO[C@@H](C)C4)cc23)ccc1CNC(=O)c1nc(C(C)(C)C)no1` (single isomer, unassigned) [Example 138] and `Cc1cc(-c2ncnn3cc(N4CCN(C)[C@H](C)C4)cc23)ccc1CNC(=O)c1nc(C(C)(C)C)no1` (single isomer, unassigned) [Example 27] cannot be ordered by IC50: no more than 1 nM for the first, no more than 1 nM for the second.

`CC(C)(C)c1nc(C(=O)NCc2ccc(-c3ncnn4cc(N5CCOCC5)cc34)c(F)c2Cl)no1` [Example 154] and `CC(C)(C)c1nc(C(=O)NCc2ccc(-c3ncnn4cc(N5CCOCC5)cc34)c(F)c2C(F)F)no1` [Example 221] cannot be ordered by IC50: no more than 1 nM for the first, no more than 1 nM for the second.

`Cc1cc(-c2ncnn3cc(N4CCO[C@@H](C)C4)cc23)ccc1CNC(=O)c1nnn(C(C)(C)C)n1` (single isomer, unassigned) [Example 140] and `Cc1cc(-c2ncnn3cc(N4CCO[C@@H](C)C4)cc23)ccc1CNC(=O)c1coc(C(C)(C)C)n1` (single isomer, unassigned) [Example 144] cannot be ordered by IC50: 1 to 10 nM for the first, no more than 1 nM for the second.

First: Cc1cc(-c2ccnn3cnnc23)ccc1CNC(=O)c1noc(C(C)(C)C)n1 [Example 47]
Second: Cc1cc(-c2ncnn3cncc23)ccc1CNC(=O)c1noc(C(C)(C)C)n1 [Example 54]
The IC50 of the first is higher: greater than 10 nM for the first, 1 to 10 nM for the second.

`Cc1cc(-c2ncnn3cc(C4=CCOCC4)cc23)ccc1CNC(=O)c1ccn(C(C)(C)C)n1` (single isomer, unassigned) [Example 127] and `Cc1cc(-c2ncnn3cc(-c4cnn(C)c4)cc23)ccc1CNC(=O)c1ccn(C(C)(C)C)n1` [Example 168] cannot be ordered by IC50: no more than 1 nM for the first, no more than 1 nM for the second.

`CC(C)(C)c1nc(C(=O)NCc2ccc(-c3ncnn4cccc34)c(F)c2C2CC2)no1` [Example 62, 5-(tert-butyl)-N-(2-cyclopropyl-3-fluoro-4-(pyrrolo[2,1-f][1,2,4]triazin-4-yl)benzyl)-1,2,4-oxadiazole-3-carboxamide trifluoroacetate] and `Cc1cc(-c2ncnn3ccc(F)c23)ccc1CNC(=O)c1noc(C(C)(C)C)n1` [Example 19, 5-(tert-butyl)-N-(4-(5-fluoropyrrolo[2,1-f][1,2,4]triazin-4-yl)-2-methylbenzyl)-1,2,4-oxadiazole-3-carboxamide trifluoroacetate] fall in the same range of IC50: 1 to 10 nM for the first, 1 to 10 nM for the second.

`Cc1cc(-c2ncnn3cc(C4=CCSCC4)cc23)ccc1CNC(=O)c1noc(C(C)(C)C)n1` [Example 101] and `C#Cc1cc2c(-c3ccc(CNC(=O)c4noc(C(C)(C)C)n4)c(C)c3)ncnn2c1` [Example 76, 5-(tert-butyl)-N-(4-(6-ethynylpyrrolo[2,1-f][1,2,4]triazin-4-yl)-2-methylbenzyl)-1,2,4-oxadiazole-3-carboxamide trifluoroacetate] cannot be ordered by IC50: no more than 1 nM for the first, 1 to 10 nM for the second.

`Cc1cc(-c2ncnn3cc(C4CCOC4)cc23)ccc1CNC(=O)c1noc(C(C)(C)C)n1` (stereo not shown) [Example 95] and `Cc1cc(-c2ncnn3cc(-c4cnn(C5COC5)c4)cc23)ccc1CNC(=O)c1noc(C(C)(C)C)n1` [Example 104] cannot be ordered by IC50: 1 to 10 nM for the first, no more than 1 nM for the second.

`COc1cc(-c2ncnn3cc(-c4cnn(C)c4)cc23)ccc1CNC(=O)c1cn(C(C)(C)C)nn1` [Example 188] and `Cn1cc(-c2cc3c(-c4ccc(CNC(=O)c5cnn(C(C)(C)C)c5)c(C(F)F)c4)ncnn3c2)cn1` [Example 212] cannot be ordered by IC50: 1 to 10 nM for the first, no more than 1 nM for the second.

`Cc1c(CNC(=O)c2noc(C3(C)CC3)n2)ccc(-c2ncnn3cc(-c4cnn(C)c4)cc23)c1F` [Example 42, N-(3-fluoro-2-methyl-4-(6-(1-methyl-1H-pyrazol-4-yl)pyrrolo[2,1-f][1,2,4]triazin-4-yl)benzyl)-5-(1-methylcyclopropyl)-1,2,4-oxadiazole-3-carboxamide hydrochloride] and `COc1c(CNC(=O)c2nnc(C(C)(C)C)o2)ccc(-c2ncnn3cc(-c4cnn(C)c4)cc23)c1F` [Example 201] cannot be ordered by IC50: no more than 1 nM for the first, 1 to 10 nM for the second.

`Cc1cc(-c2ncnn3cc(-c4cnn(CC(F)F)c4)cc23)ccc1CNC(=O)c1cnn(C(C)(C)C)c1` [Example 145] and `Cn1cc(-c2cc3c(-c4ccc(CNC(=O)c5nc(C(C)(C)C)no5)c(CC(F)F)c4)ncnn3c2)cn1` [Example 207] cannot be ordered by IC50: no more than 1 nM for the first, no more than 1 nM for the second.

Compared with `Cc1cc(-c2ncnn3cccc23)ccc1CNC(=O)c1coc(C(C)(F)F)n1` [Example 20, 2-(1,1-difluoroethyl)-N-(2-methyl-4-(pyrrolo[2,1-f][1,2,4]triazin-4-yl)benzyl)oxazole-4-carboxamide trifluoroacetate], `Cc1cc(-c2ncnn3cc(-c4ccc(C#N)cc4)cc23)ccc1CNC(=O)c1noc(C(C)(C)C)n1` [Example 225] is lower in IC50: greater than 10 nM for the first, no more than 1 nM for the second. The second is the more potent here.

`Cc1cc(-c2ncnn3cc(N4CCN(C)C(C)C4)cc23)ccc1CNC(=O)c1noc(C(C)(C)C)n1` (stereo not shown) [Example 96] and `Cc1cc(-c2ncnn3cc(N4CC(CO)(CO)C4)cc23)ccc1CNC(=O)c1noc(C(C)(C)C)n1` [Example 73, N-(4-(6-(3,3-bis(hydroxymethyl)azetidin-1-yl)pyrrolo[2,1-f][1,2,4]triazin-4-yl)-2-methylbenzyl)-5-(tert-butyl)-1,2,4-oxadiazole-3-carboxamide] cannot be ordered by IC50: no more than 1 nM for the first, no more than 1 nM for the second.

Going from `Cc1cc2nccc(-c3ccc(CNC(=O)c4noc(C(C)(C)C)n4)c(C)c3)n2n1` [Example 46] to `CC(C)(C)c1nc(C(=O)NCc2ccc(-c3ncnn4cc(N5CCOCC5)cc34)cc2C(F)F)no1` [Example 220], the IC50 falls from greater than 10 nM to no more than 1 nM.

`CO[C@H]1CCN(c2cc3c(-c4ccc(CNC(=O)c5nc(C(C)(C)C)no5)c(C)c4)ncnn3c2)C1` (single isomer, unassigned) [Example 23] and `Cn1cc(-c2cc3c(-c4ccc(CNC(=O)c5nnc(C(C)(C)C)o5)c(C(F)F)c4F)ncnn3c2)cn1` [Example 196] cannot be ordered by IC50: no more than 1 nM for the first, no more than 1 nM for the second.
